Values of other authors in patent publication US20030139466A1, “Methods for pretreating a subject with extracorporeal photopheresis” (priority 2001, published 2003).

How the values were obtained:
[1] = system: heart transplantation patients
[2] = system: monocytes; conditions: plasma containing 8-methoxypsoralen and exposure to ultraviolet-A light (photopheresis)

Q: For `Cn1cnc([N+](=O)[O-])c1Sc1ncnc2nc[nH]c12` [azathioprine], which One-year actuarial survival [1] is on record?
A: 60%

Q: What about the “patients who experience no rejection” value ([1]; initial postoperative period) of the same molecule?
A: < 10%

Q: With `COc1c2occc2cc2ccc(=O)oc12` [8-methoxypsoralen, 9-methoxy-7H-furo[3,2-g][1]-benzopyran-7-one] as the molecule, how does the cytokine release [2] read?
A: releases tumor necrosis factor-alpha, IL-1, IL-6, and possibly IL-8
